# Measured values published in patent US20040248762A1, “Malodor counteractant compositions” (priority 2003, published 2004).
# “And” between values parts separate entries of the source, which are not always exact repeats. Identical values can stand only once.
# Key:
# [1] = Synthetic axilla malodor on cotton pads, panel rating of malodor strength; design: species or system human; details: scale 5 overpowering to 1 not detectable; for 5% OMC + 5% Compound B (axilla malodor panel score): mixture 5% OMC + 5% Compound B
# Protocol: 100 μl of synthetic axilla malodor was placed onto cotton pads. 0.4 g of an ethanolic solution containing 10% (wt) of a test compound identified in Table 1 was placed on each axilla malodor treated cotton pad. Each pad was allowed to dry 15 for minutes, and then evaluated using a 10-member panel after 3 hours. The test cotton pads were randomized, and each panelist was asked to check a box that represented the strength of the axilla malodor using the following scale:
# In this example, the MOC effect of various mixtures of a Class A MOC compound and a Class B MOC compound (i.e., dihexyl fumerate as disclosed in Kulka, U.S. Pat. No. 3,074,892) were evaluated using the same test and malodor evaluation procedures as set forth in Example 1. Each test solution contained 5% (wt) DHF and 5% (wt) of the Class A compound identified in Table 3. The MOC effect was evaluated as in Example 1.
# Various mixtures of OMC (a Class A Compound) and a Class B compound (i.e., various cyclohexyl esters as disclosed in Schleppnik '221) as identified in Table 4 below were made according to the procedure set forth in Example 1. The MOC of each mixture was evaluated using the procedure set forth in Example 1.
# [2] = MOC of sweat malodor on fabric swatches; design: species or system human; details: summary of Table 6
# Protocol: The following fabric treatment solutions were prepared:
# 1. A solution of ethanol and Cremophor (a hydrogenated ethoxylated castor oil marketed by BASF Corp., Mount Olive, N.J.) containing 10% (wt) of dihexyl fumerate (DHF).
# 2. A solution of ethanol and Cremophor containing 10% (wt) of OMC.
# 3. A solution of ethanol and Cremophor containing 5% (wt) of DHF+5% (wt) OMC.
# Five (5) fabric swatches were prepared, and labeled A-E. Swatch A was designated as the control swatch with no malodor. 100 μl of sweat malodor was placed in the middle of swatches B-E. Swatch B was designated as the control swatch for the malodor. The swatches were allowed to equilibrate with the malodor for 20 minutes. Onto swatches C-E, the following solutions were sprayed:
# The malodor intensity on the cotton swatches was evaluated as follows:
# The malodor intensity on swatch B (Malodor Control) was identified as a 5 (overpoweringly strong) on the scale of 1-5 set forth below at every time point, and the rest of swatches were evaluated based on that standard.
SMILES,"10% test (Compound B Alone) (axilla malodor panel score) ([1]; 10% Compound B alone, procedure of Example 1)",5% OMC + 5% Compound B (axilla malodor panel score) ([1]; procedure of Example 1),MOC effect on sweat malodor on fabric (in words) [2],"10% OMC (Alone) (axilla malodor panel score) ([1]; 10% OMC alone, run beside the Compound B of that table line)"
"CCCCCCOC(=O)/C=C/C(=O)OCCCCCC [Dihexyl Fumerate, reference compound]",2.6,2.3,had a MOC effect,
"CCCCC(CC)COC(=O)/C=C/c1ccc(OC)cc1 (stereo not drawn) [OMC, Octyl methoxy cinnamate]",,acts at least additively,had a MOC effect,3.1 and 2.6 and 3.2
